From patent US20090131356A1, “miR-15, miR-26, miR-31, miR-145, miR-147, miR-188, miR-215, miR-216, miR-331, mmu-miR-292-3P REGULATED GENES AND PATHWAYS AS TARGETS FOR THERAPEUTIC INTERVENTION” (ASURAGEN, INC., priority 2006, published 2009)
pIC50: −log10 of the molar value.

Assays:
[1] = system: SCLC and NSCLC cells; conditions: various lung cancer cells, SCLC and NSCLC (Tsai et al., 1993; Ohsaki et al., 1992); cited from earlier work
[2] = system: human prostate cancer cells PPC-1, Du145 and RWPE2; experiment: Alamar Blue proliferation assay, average over prostate cancer cell lines; type: cell-based; conditions: 30 nM, 4-7 days post-transfection; average of PPC-1, Du145, RWPE2; vs negative control miRNA (100%)
From the text: (§1) The inventors assessed the therapeutic effect of hsa-miR-147 for prostate cancer by using 4 individual human prostate cancer cell lines. To measure cellular proliferation of prostate cancer cells, the following prostate cancer cell lines were used: PPC-1 and PC3, derived from a bone metastasis; Du145, derived from a brain metastasis; RWPE2, derived from prostate cells immortalized by human papillomavirus 18 and transformed by the K-RAS oncogene (Bello et al., 1997; Stone et al., 1978; Brothman et al., 1991). PC3, PPC-1, and Du145 cells lack expression of the prostate-specific antigen (PSA) and are independent of androgen receptor (AR) signaling. In contrast, RWPE2 cells test positive for PSA and AR.
(§2) PPC-1, Du145 and RWPE2 cells were transfected with synthetic hsa-miR-147 (Pre-miR™-hsa-miR-147, Ambion cat. no. AM17100) or negative control miRNA (NC; Pre-miR™ microRNA Precursor Molecule-Negative Control #2; Ambion cat. no. AM17111) in a 96-well format using a lipid-based transfection reagent. […] Proliferation was assessed 4-7 days post-transfection using Alamar Blue™ (Invitrogen) following the manufacturer's instructions. […] Fluorescent light units (FLU) were measured after 3 hours, normalized to the control, and plotted as percent change in proliferation. […]

[3] = system: human A549 lung cancer xenografts; experiment: A549 lung cancer xenograft, cells electroporated with miRNA before implantation; type: in vivo, NOD/SCID mice; conditions: cells electroporated with 5 μg miRNA, injected subcutaneously; tumors measured days 14-20; vs negative control miRNA
Experimental: The inventors assessed the growth-inhibitory activity of hsa-miR-147 in a human lung cancer xenograft grown in immunodeficient mice. Hsa-miR-147 was delivered into A549 lung cancer cells via electroporation using the BioRad GenePulserXcell™ instrument with the following settings: 15×10^6 cells with 5 μg miRNA in 200 μl OptiMEM, square wave pulse at 150 V for 10 ms. A total of 30×10^6 A549 cells was used to 5×10^6 electroporated cells were mixed with matrigel in a 1:1 ratio and injected subcutaneously into the flank of NOD/SCID mice. As a negative control, A549 cells were electroporated with negative control miRNA (pre-miR-NC#2, Ambion) as describe above. NC miRNA-treated cells were injected into the opposite flank of the same animal to control for animal-to-animal variability. A total of 30×10^6 A549 cells per hsa-miR-147 and NC was used to accommodate 5 injections into 5 animals. Size measurements of tumors started 14 days after injection once tumors have reached a measurable size. Length and width of tumors were determined every day for the following 6 days. Tumor volumes were calculated using the formula V=length×width^2/2 in which the length is greater than the width. Tumor volumes derived from NC-treated cells and hsa-miR-147-treated cells were averaged and plotted over time (FIG. 5). Standard deviations are shown in the graph. […]

[4] = system: PPC-1 cells; experiment: Alamar Blue proliferation assay, PPC-1; type: cell-based, human; conditions: 30 nM, normalized to negative control miRNA (100% proliferation)
From the text: as §1, §2

[5] = system: H226 lung cancer cells; experiment: Long-term growth curve with repeated electroporation, H226; type: cell-based, human; conditions: 1.6 μM electroporated, repeated on days 6, 17 and 25; day 31; relative to control cells (100%)
Experimental: To evaluate the therapeutic activity of hsa-miR-147 over an extended period of time, the inventors conducted growth curve experiments in the presence of miRNA for up to 31 days in H226 lung cancer cells. Since in vitro transfections of naked interfering RNAs, such as synthetic miRNA, are transient by nature and compromised by the dilution of the oligo during ongoing cell divisions, miRNA was administered at multiple time points (Bartlett et al., 2006; Bartlett et al., 2007). To accommodate miRNA delivery into a large quantity of cells, hsa-miR-147 or negative control miRNA were delivered by the electroporation method. Briefly, 1×10^6 H226 were electroporated in triplicate with 1.6 μM hsa-miR-147 or negative control using the BioRad Gene Pulser Xcell™ instrument (BioRad Laboratories Inc., Hercules, Calif., USA), seeded and propagated in regular growth medium. When the control cells reached confluence (days 6, 17 and 25), cells were harvested, counted and electroporated again with the respective miRNAs. […] The population doubling was calculated from these electroporation events using the formula PD=ln(Nf/N0)/ln2 and adjusting for the fact that approximately 72% of newly seeded cells adhere to the plate. […]

| Compound | pIC50 [1] | inhibition of cellular proliferation, on average [2] [%] | tumor growth of A549 xenograft [3] | % proliferation [4] [%] | inhibition of H226 cell growth [5] [%] | remaining cells [5] [%] |
| --- | --- | --- | --- | --- | --- | --- |
| COc1cc([C@@H]2c3cc4c(cc3[C@@H](O[C@@H]3O[C@@H]5CO[C@@H](C)O[C@H]5[C@H](O)[C@H]3O)[C@H]3COC(=O)[C@H]23)OCO4)cc(OC)c1O [Etoposide, etoposide] | 4.60 to 6.00 |  |  |  |  |  |
| hsa-miR-147: Synthetic pre-miR-147 (Ambion AM17100; Dharmacon in vivo); mature sequence GUGUGUGGAAAUGCUUCUGC, MIMAT0000251, SEQ ID NO:114 (synthetic pre-miR (Ambion/Dharmacon), chemistry not given here; listed as Homo sapiens) |  | 27.48 | inhibited tumor growth in vivo | 76.98 | 90.9 | 9.1 |
